Read-outs that look alike come from different tables or passages of the source.
Columns and labels:
[1] = tested on: phosphorylation of Cdc2 at Tyr15; assay: ELISA for phosphorylation of Cdc2 at Tyr15 in HT-29 / HCT-116 cells; type: cell-based; conditions: Homo sapiens
Experimental: Method 2: Determining the Effect of Compounds on the Phosphorylation of Cdc2 at Tyr15
The colorectal cancer cell lines HT-29 and HCT-116 were purchased from the ATCC and routinely maintained in McCoy's Medium (Invitrogen) supplemented with 10% Foetal Calf Serum.
The cells were trypsinised from their growing vessel and counted, 100 μL of cell suspension containing 6000 cells was pipetted into black 96 well Co-star plates and incubated overnight to allow adherence to the surface at a temperature of 37° C. and an atmosphere of 5% CO2. Test compounds were formulated in DMSO and diluted in foetal calf serum supplemented medium. Incubating medium was removed by aspiration and diluted drug supplemented medium added to each well.
The plate was returned to the incubator for an additional eight hours at 37° C. and an atmosphere of 5% CO2. Post incubation, the drug supplemented medium was aspirated from each well and the cells were washed once in ice-cold phosphate buffered saline (PBS). 100 μL of cell lysis buffer (Cell Signalling Technologies #9803) containing 20 mM Tris, 150 mM NaCl, 1 mM EDTA, 1 mM EGTA, 1% Triton-X100, 2.5 mM sodium pyrophosphate, 1 mM glycerophosphate, 1 mM Na3VO4 and 1 μg/mL leupeptin was added to each well of the 96 well plate and incubated at 4° C. for 30 min. The samples on the plate were snap frozen at −80° C. until required. Immediately before the continuation of the assay, the sample plate was thawed and centrifuged at 4° C. for 10 min and the supernatant transferred to secondary tubes or 96 well plate.
Cell supernatant was mixed in a ratio of 1:1 with sample dilutent buffer and vortexed for one minute. 100 μL of diluted sample was pipetted into pre-coated plates containing a rabbit polyclonal antibody for phospho-cdc2 (Tyr15) (Cell Signalling Technologies PathScan kit #7176). The plate was sealed and incubated overnight at 4° C.
The plate seal was removed and the well contents aspirated, followed by 3×5 min washes with 200 μL of diluted wash buffer. Between each wash the plate was tapped firmly onto blotting paper to ensure the removal of all kit solution. 100 μL of kit detection antibody was added to each well and the plate re-sealed and incubated at 37° C. for 1 h. Post incubation the plate was washed and processed in a similar manner to that previously described.
100 μL of horseradish peroxidise-linked secondary antibody was added to each test well, the plate sealed and incubated for thirty minutes at 37° C. Post incubation, the plate was washed as previously stated, followed by the addition of 100 μL of 3,3′,5,5′ tetramethylbenzidine (TMB reagent). The plate was sealed and incubated at RT for 30 min.
100 μL of stop solution was added to each well and the underside of the plate wiped with a lint-free tissue, prior to spectrophotometric determination. Absorbance from each well was read at 450 nm within 30 min of the addition of the stop solution.
The percentage of phospho-cdc2 was calculated compared to DMSO control and plotted versus the concentration of inhibitor using GraphPad Prism. Data was fitted using non-linear regression analysis and IC50 values generated.

[2] = tested on: panel of 50 kinases; assay: Invitrogen SelectScreen Kinase Profiling Service, selectivity over the panel; type: biochemical; conditions: compared with compounds of the prior art
Excerpt: (§1) Table 4 below highlights the selectivity of a representative compound of the invention, Example 5, against a panel of 50 kinases (assessed using the Invitrogen SelectScreen® Kinase Profiling Service).

[3] = target: ABL1 (Homo sapiens (Human), UniProt P00519); assay: SelectScreen Kinase Profiling: ABL1; type: biochemical; conditions: tested at 300-350 nM
Excerpt: as §1

[4] = target: AKT1 (PKB alpha) (Homo sapiens (Human), UniProt P31749); assay: SelectScreen Kinase Profiling: AKT1 (PKB alpha); type: biochemical; conditions: tested at 300-350 nM
Excerpt: as §1

[5] = target: AURKA (Aurora A) (Homo sapiens (Human), UniProt O14965); assay: SelectScreen Kinase Profiling: AURKA (Aurora A); type: biochemical; conditions: tested at 300-350 nM
Excerpt: as §1

[6] = target: BTK (Homo sapiens (Human), UniProt Q06187); assay: SelectScreen Kinase Profiling: BTK; type: biochemical; conditions: tested at 300-350 nM
Excerpt: as §1

[7] = target: CSNK1G2 (CK1 gamma 2) (Homo sapiens (Human), UniProt P78368); assay: SelectScreen Kinase Profiling: CSNK1G2 (CK1 gamma 2); type: biochemical; conditions: tested at 300-350 nM
Excerpt: as §1

[8] = target: FGFR1 (Homo sapiens (Human), UniProt P11362); assay: SelectScreen Kinase Profiling: FGFR1; type: biochemical; conditions: tested at 300-350 nM
Excerpt: as §1

[9] = target: FLT3 (Homo sapiens (Human), UniProt P36888); assay: SelectScreen Kinase Profiling: FLT3; type: biochemical; conditions: tested at 300-350 nM
Excerpt: as §1

[10] = target: FRAP1 (mTOR) (Homo sapiens (Human), UniProt P42345); assay: SelectScreen Kinase Profiling: FRAP1 (mTOR); type: biochemical; conditions: tested at 300-350 nM
Excerpt: as §1

[11] = target: GSK3B (GSK3 beta) (Homo sapiens (Human), UniProt P49841); assay: SelectScreen Kinase Profiling: GSK3B (GSK3 beta); type: biochemical; conditions: tested at 300-350 nM
Excerpt: as §1

[12] = target: IRAK4 (Homo sapiens (Human), UniProt Q9NWZ3); assay: SelectScreen Kinase Profiling: IRAK4; type: biochemical; conditions: tested at 300-350 nM
Excerpt: as §1

[13] = target: JAK3 (Homo sapiens (Human), UniProt P52333); assay: SelectScreen Kinase Profiling: JAK3; type: biochemical; conditions: tested at 300-350 nM
Excerpt: as §1

[14] = target: KIT (Homo sapiens (Human), UniProt P10721); assay: SelectScreen Kinase Profiling: KIT; type: biochemical; conditions: tested at 300-350 nM
Excerpt: as §1

[15] = target: LCK (Homo sapiens (Human), UniProt P06239); assay: SelectScreen Kinase Profiling: LCK; type: biochemical; conditions: tested at 300-350 nM
[16] = target: MARK2 (Homo sapiens (Human), UniProt Q7KZI7); assay: SelectScreen Kinase Profiling: MARK2; type: biochemical; conditions: tested at 300-350 nM
Excerpt: as §1

[17] = target: NEK1 (Homo sapiens (Human), UniProt Q96PY6); assay: SelectScreen Kinase Profiling: NEK1; type: biochemical; conditions: tested at 300-350 nM
Excerpt: as §1

[18] = target: NTRK1 (TRKA) (Homo sapiens (Human), UniProt P04629); assay: SelectScreen Kinase Profiling: NTRK1 (TRKA); type: biochemical; conditions: tested at 300-350 nM
Excerpt: as §1

[19] = target: PAK4 (Homo sapiens (Human), UniProt O96013); assay: SelectScreen Kinase Profiling: PAK4; type: biochemical; conditions: tested at 300-350 nM
Excerpt: as §1

[20] = target: RPS6KA3 (RSK2) (Homo sapiens (Human), UniProt P51812); assay: SelectScreen Kinase Profiling: RPS6KA3 (RSK2); type: biochemical; conditions: tested at 300-350 nM
Excerpt: as §1

[21] = target: RPS6KB1 (p70S6K) (Homo sapiens (Human), UniProt P23443); assay: SelectScreen Kinase Profiling: RPS6KB1 (p70S6K); type: biochemical; conditions: tested at 300-350 nM
Excerpt: as §1

[22] = target: SYK (Homo sapiens (Human), UniProt P43405); assay: SelectScreen Kinase Profiling: SYK; type: biochemical; conditions: tested at 300-350 nM
Excerpt: as §1

[23] = target: TEK (Tie2) (Homo sapiens (Human), UniProt Q02763); assay: SelectScreen Kinase Profiling: TEK (Tie2); type: biochemical; conditions: tested at 300-350 nM
Excerpt: as §1

Sequence of AKT1 (PKB alpha) (P31749 whole entry): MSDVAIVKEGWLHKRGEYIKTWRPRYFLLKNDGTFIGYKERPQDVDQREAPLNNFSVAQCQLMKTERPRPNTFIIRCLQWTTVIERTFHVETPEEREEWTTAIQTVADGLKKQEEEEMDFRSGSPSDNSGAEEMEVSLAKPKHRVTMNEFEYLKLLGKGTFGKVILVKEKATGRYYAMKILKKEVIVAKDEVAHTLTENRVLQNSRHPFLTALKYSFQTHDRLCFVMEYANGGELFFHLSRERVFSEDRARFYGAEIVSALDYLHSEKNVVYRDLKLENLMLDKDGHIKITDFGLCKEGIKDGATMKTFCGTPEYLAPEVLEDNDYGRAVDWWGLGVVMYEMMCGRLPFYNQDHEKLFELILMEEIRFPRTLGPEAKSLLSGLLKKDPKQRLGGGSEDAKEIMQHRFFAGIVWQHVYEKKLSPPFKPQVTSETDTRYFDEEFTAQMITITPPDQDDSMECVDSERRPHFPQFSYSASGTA
Sequence of RPS6KB1 (p70S6K) (P23443 whole entry): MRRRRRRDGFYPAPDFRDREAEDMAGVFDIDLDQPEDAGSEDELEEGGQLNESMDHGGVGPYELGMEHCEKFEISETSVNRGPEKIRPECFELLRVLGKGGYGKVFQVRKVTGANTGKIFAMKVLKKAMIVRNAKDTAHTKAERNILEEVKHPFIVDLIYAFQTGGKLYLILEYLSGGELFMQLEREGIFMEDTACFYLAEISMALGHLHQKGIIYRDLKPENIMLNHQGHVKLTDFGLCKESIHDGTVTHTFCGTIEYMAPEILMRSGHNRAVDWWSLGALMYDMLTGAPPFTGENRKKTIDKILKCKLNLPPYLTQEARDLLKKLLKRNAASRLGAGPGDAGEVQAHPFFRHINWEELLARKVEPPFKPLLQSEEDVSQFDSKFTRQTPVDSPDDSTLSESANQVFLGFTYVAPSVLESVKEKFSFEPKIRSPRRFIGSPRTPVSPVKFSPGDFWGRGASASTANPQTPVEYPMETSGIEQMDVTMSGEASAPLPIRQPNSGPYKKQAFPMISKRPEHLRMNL
Sequence of KIT (P10721 26-976): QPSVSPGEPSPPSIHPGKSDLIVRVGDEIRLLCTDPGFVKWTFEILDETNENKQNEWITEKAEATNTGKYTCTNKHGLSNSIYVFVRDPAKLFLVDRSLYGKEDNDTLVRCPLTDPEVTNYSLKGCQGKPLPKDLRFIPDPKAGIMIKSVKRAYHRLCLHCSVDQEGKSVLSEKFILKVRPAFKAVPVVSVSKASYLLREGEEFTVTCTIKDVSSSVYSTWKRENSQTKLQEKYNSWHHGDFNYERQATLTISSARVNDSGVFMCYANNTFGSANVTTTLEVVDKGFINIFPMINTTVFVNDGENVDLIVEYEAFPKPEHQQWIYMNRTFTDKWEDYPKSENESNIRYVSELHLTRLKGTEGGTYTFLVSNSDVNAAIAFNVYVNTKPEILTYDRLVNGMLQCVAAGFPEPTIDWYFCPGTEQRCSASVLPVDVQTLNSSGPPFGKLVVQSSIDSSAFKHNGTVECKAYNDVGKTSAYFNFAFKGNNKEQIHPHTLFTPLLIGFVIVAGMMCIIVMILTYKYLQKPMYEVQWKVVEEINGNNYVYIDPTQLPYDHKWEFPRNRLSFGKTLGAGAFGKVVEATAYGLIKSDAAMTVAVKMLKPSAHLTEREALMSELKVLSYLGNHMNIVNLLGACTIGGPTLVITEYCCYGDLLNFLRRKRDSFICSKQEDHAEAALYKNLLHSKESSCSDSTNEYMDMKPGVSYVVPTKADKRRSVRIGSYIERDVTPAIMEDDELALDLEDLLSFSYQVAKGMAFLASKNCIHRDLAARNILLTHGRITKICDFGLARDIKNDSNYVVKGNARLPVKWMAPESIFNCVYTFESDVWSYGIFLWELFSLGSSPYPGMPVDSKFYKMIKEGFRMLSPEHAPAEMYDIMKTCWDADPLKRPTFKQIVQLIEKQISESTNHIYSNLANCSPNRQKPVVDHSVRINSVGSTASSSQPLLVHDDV
Sequence of GSK3B (GSK3 beta) (P49841 whole entry): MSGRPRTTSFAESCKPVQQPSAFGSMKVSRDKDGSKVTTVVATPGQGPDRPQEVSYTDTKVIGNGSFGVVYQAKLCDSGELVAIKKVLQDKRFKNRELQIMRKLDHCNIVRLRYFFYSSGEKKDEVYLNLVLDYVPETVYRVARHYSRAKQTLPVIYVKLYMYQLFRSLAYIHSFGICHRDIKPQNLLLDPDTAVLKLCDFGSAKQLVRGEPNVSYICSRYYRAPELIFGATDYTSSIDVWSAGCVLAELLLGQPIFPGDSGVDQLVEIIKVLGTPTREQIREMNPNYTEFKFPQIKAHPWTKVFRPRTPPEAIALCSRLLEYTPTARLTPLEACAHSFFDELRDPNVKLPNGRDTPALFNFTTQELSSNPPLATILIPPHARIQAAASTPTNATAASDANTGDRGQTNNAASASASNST
Sequence of FGFR1 (P11362 22-822): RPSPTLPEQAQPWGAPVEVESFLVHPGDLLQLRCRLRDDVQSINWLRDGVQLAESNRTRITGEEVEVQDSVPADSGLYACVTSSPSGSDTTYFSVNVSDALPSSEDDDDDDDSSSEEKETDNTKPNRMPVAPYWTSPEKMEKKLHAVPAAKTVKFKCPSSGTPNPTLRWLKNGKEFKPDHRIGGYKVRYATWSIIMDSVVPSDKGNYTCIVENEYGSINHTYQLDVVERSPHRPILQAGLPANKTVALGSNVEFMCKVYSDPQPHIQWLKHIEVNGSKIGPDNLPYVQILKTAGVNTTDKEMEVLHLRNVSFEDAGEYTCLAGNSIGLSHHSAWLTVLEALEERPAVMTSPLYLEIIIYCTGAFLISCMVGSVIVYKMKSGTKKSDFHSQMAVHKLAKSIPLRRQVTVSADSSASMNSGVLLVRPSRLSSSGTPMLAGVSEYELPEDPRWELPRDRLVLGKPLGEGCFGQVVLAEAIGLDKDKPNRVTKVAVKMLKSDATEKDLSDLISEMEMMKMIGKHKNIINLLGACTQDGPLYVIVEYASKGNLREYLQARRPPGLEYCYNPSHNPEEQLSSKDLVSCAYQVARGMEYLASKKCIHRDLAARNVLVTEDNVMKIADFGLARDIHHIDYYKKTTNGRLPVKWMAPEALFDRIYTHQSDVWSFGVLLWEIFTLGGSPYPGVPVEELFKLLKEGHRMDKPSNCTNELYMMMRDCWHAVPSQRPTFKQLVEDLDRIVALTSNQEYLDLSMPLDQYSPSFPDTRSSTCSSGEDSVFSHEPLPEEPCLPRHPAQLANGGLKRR
Sequence of BTK (Q06187 whole entry): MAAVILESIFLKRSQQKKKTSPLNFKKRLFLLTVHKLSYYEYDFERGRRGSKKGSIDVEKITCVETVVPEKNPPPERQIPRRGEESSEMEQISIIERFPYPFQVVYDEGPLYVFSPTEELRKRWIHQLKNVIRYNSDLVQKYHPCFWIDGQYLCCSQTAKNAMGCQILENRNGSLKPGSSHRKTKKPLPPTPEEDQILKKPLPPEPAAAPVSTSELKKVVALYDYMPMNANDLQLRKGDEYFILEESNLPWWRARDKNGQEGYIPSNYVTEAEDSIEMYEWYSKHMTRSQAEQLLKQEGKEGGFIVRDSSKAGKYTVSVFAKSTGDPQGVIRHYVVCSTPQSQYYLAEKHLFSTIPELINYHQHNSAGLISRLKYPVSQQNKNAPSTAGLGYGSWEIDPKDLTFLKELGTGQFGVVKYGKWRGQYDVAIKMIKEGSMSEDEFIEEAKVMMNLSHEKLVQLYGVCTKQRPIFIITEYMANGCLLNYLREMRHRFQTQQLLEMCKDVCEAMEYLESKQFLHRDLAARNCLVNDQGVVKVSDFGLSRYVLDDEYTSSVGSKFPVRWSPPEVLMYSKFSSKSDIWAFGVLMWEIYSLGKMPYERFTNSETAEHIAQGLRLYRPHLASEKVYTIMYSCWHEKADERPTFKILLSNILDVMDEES
Sequence of NTRK1 (TRKA) (P04629 33-796): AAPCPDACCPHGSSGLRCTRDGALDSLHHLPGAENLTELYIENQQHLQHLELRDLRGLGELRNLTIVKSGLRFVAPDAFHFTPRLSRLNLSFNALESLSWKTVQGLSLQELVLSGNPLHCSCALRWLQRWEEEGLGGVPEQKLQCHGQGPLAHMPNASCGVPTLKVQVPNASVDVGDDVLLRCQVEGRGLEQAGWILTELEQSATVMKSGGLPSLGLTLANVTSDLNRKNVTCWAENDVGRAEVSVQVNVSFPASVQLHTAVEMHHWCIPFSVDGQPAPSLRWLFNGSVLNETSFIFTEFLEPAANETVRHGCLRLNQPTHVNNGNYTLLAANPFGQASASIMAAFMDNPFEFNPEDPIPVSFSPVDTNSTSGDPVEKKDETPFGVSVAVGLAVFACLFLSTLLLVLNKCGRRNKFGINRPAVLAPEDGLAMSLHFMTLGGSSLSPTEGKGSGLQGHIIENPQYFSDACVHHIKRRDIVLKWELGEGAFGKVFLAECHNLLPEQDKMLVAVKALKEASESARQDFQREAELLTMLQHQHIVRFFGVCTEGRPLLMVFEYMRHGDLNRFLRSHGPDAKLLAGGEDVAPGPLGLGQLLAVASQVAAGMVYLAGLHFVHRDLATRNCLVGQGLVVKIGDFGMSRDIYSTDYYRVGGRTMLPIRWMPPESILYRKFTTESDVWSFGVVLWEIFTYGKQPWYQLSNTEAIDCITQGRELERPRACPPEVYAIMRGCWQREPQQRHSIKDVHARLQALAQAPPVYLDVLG
Sequence of AURKA (Aurora A) (O14965 whole entry): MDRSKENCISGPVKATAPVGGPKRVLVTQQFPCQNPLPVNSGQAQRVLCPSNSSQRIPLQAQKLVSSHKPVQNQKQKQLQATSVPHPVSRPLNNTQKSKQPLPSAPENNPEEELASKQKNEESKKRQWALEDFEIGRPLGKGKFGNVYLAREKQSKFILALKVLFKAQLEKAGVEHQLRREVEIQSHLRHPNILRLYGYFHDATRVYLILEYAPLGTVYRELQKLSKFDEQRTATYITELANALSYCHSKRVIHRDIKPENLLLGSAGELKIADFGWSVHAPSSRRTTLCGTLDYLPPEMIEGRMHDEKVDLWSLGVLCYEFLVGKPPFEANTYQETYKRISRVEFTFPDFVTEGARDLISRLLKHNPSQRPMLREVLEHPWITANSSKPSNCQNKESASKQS

Structure (SMILES): C=CCn1c(=O)c2cnc(Nc3ccc(N4CCN(C)CC4)cc3)nc2n1-c1cccc(N=S(C)(C)=O)n1 [Example 5, 1-(6-{[Dimethyl(oxo)-λ^6-sulfanylidene]amino}pyridine-2-yl)-6-{[4-(4-methylpiperazin-1-yl)phenyl]amino}-2-(prop-2-en-1-yl)-1H,2H,3H-pyrazolo[3,4-d]pyrimidin-3-one]
- EC50 ([1]; 8 h, Table 2, colorectal cancer cells, eight hours incubation, read-out: ELISA p-CDC2 EC50): 12 nM
- EC50 ([1]; Table 3, read-out: ELISA p-CDC2 EC50): 12 nM
- EC50 ([1]; Table 5, data obtained as described in the experimental section of the current invention, read-out: ELISA/nM): 12 nM
- selectivity against a panel of 50 kinases [2]: greater selectivity
- inhibition of ABL1 [3]: − (inhibition under 50% (tested at 300-350 nM))
- inhibition of AKT1 (PKB alpha) [4]: − (inhibition under 50% (tested at 300-350 nM))
- inhibition of AURKA (Aurora A) [5]: − (inhibition under 50% (tested at 300-350 nM))
- inhibition of BTK [6]: − (inhibition under 50% (tested at 300-350 nM))
- inhibition of CSNK1G2 (CK1 gamma 2) [7]: − (inhibition under 50% (tested at 300-350 nM))
- inhibition of FGFR1 [8]: − (inhibition under 50% (tested at 300-350 nM))
- inhibition of FLT3 [9]: − (inhibition under 50% (tested at 300-350 nM))
- inhibition of FRAP1 (mTOR) [10]: − (inhibition under 50% (tested at 300-350 nM))
- inhibition of GSK3B (GSK3 beta) [11]: − (inhibition under 50% (tested at 300-350 nM))
- inhibition of IRAK4 [12]: − (inhibition under 50% (tested at 300-350 nM))
- inhibition of JAK3 [13]: − (inhibition under 50% (tested at 300-350 nM))
- inhibition of KIT [14]: − (inhibition under 50% (tested at 300-350 nM))
- inhibition of LCK [15]: − (inhibition under 50% (tested at 300-350 nM))
- inhibition of MARK2 [16]: − (inhibition under 50% (tested at 300-350 nM))
- inhibition of NEK1 [17]: − (inhibition under 50% (tested at 300-350 nM))
- inhibition of NTRK1 (TRKA) [18]: − (inhibition under 50% (tested at 300-350 nM))
- inhibition of PAK4 [19]: − (inhibition under 50% (tested at 300-350 nM))
- inhibition of RPS6KA3 (RSK2) [20]: − (inhibition under 50% (tested at 300-350 nM))
- inhibition of RPS6KB1 (p70S6K) [21]: − (inhibition under 50% (tested at 300-350 nM))
- inhibition of SYK [22]: − (inhibition under 50% (tested at 300-350 nM))
- inhibition of TEK (Tie2) [23]: − (inhibition under 50% (tested at 300-350 nM))

Reference: patent US10766902B2, “Wee-1 inhibiting pyrazolopyrimidinone compounds” (ALMAC DISCOVERY LIMITED, priority 2016, dated 2020)
